Data on 5 compounds can be found in US20250066370A1, “BICYCLIC TRIAZINE DERIVATIVES FOR THE TREATMENT OF CANCER” (DEUTSCHES KREBSFORSCHUNGSZENTRUM, priority 2022, published 2025).

Structures are written as SMILES. Where only a bound is given, the exact number is not on record here.

The test system of assay [1] is CAL-120, human breast adenocarcinoma cells. The assay can be described thus: Proliferation assay CAL-120 (crystal violet). Type of assay: cell-based. The settings on record: 96 h, CAL-120 parental cells, 4 days, median, read-out: Prolif-CAL-120, IC50 - [mol/l] (median). On the procedure:
Human tumour cells were originally obtained from the American Type Culture Collection (ATCC), or from the Deutsche Sammlung von Mikroorganismen und Zellkulturen (DSMZ, German Collection of Microorganisms and Cell Cultures). Cultivated tumour cells (CAL-120, human breast adenocarcinoma cells, DSMZ ACC-459; MDA-MB-231, human breast cancer cells, ATCC HTB-26) were plated at a density of 4,000 cells/well in a 96-well multitier plate in 200 microL of their respective growth medium supplemented 10% fetal calf serum. After 24 hours, the cells of one plate (zero-point plate) were stained with crystal violet (see below), while the medium of the other plates was supplemented with the test substances in various concentrations (0 micromol/L, as well as in the range of 0.01-10 micromol/L; the final concentration of the solvent dimethyl sulfoxide was adjusted to 0.1%) using a Tecan HP D300 Digital Dispenser. The cells were incubated for 4 days in the presence of test substances. Cell proliferation was determined by staining the cells with crystal violet: the cells were fixed by adding 20 microL/measuring point of an 11% glutaric aldehyde solution for 15 minutes at room temperature. After three washing cycles of the fixed cells with water, the plates were dried at room temperature. The cells were stained by adding 100 microL/measuring point of a 0.1% crystal violet solution (pH 3.0). After three washing cycles of the stained cells with water, the plates were dried at room temperature. The dye was dissolved by adding 100 microL/measuring point of a 10% acetic acid solution. The extinction was determined by photometry at a wavelength of 595 nm. The change of cell number, in percent, was calculated by normalization of the measured values to the extinction values of the zero-point plate (=0%) and the extinction of the untreated (0 μM) cells (=100%). The IC50 values (inhibitory concentration at 50% of maximal effect) were determined by means of a 4 parameter fit.

The next assay concerns the target CDK2/CyclinE (Homo sapiens (Human), UniProt P24941). As to the kind of experiment: CDK2/CycE kinase assay (TR-FRET). Type of assay: biochemical. The settings on record: 2 mM ATP (high ATP); median; read-out: CDK2/CyclinE, 2 mM ATP (high ATP), IC50 - [mol/l] (median). The source says:
CDK2/CycE-inhibitory activity of compounds of the present invention was quantified employing the CDK2/CycE TR-FRET assay as described in the following paragraphs.
Recombinant fusion proteins of GST and human CDK2 and of GST and human CycE, expressed in insect cells (Sf9) and purified by Glutathion-Sepharose affinity chromatography, were purchased from ProQinase GmbH (Freiburg, Germany). As substrate for the kinase reaction biotinylated peptide biotin-Ttds-YISPLKSPYKISEG (C-terminus in amid form) was used which can be purchased e.g. form the company JERINI peptide technologies (Berlin, Germany).
For the assay 50 nanoL of a 100 fold concentrated solution of the test compound in DMSO was pipetted into a black low volume 384 well microtiter plate or a black 1536 well microtiter plate (both Greiner Bio-One, Frickenhausen, Germany), 2 microL of a solution of CDK2/CycE in aqueous assay buffer [50 millimol/L Tris/HCl PH 8.0, 10 millimol/L MgCl2, 1.0 millimol/L dithiothreitol, 0.1 millimol/L sodium ortho-vanadate, 0.01% (v/v) Nonidet-P40 (Sigma)] were added and the mixture was incubated for 15 min at 22° C. to allow pre-binding of the test compounds to the enzyme before the start of the kinase reaction. Then the kinase reaction was started by the addition of 3 microL of a solution of adenosine-tri-phosphate (ATP, 3.33 millimol/L=>final conc. in the 5 microL assay volume is 2 millimol/L) and substrate (1.25 micromol/L=>final conc. in the 5 microL assay volume is 0.75 micromol/L) in assay buffer and the resulting mixture was incubated for a reaction time of 25 min at 22° C. The concentration of CDK2/CycE was adjusted depending of the activity of the enzyme lot and was chosen appropriate to have the assay in the linear range, typical concentrations were in the range of 10 ng/ml. The reaction was stopped by the addition of 3 microL of a solution of TR-FRET detection reagents (0.333 micromol/L streptavidine-XL665 [Cisbio Bioassays, Codolet, France] and 1.67 nanomol/L anti-RB (pSer807/pSer811)-antibody from BD Pharmingen [#558389] and 2 nanomol/L LANCE EU-W1024 labeled anti-mouse IgG antibody [Perkin-Elmer, product no. AD0077, as an alternative a Terbium-cryptate-labeled anti-mouse IgG antibody from Cisbio Bioassays can be used]) in an aqueous EDTA-solution (167 millimol/L EDTA, 0.2% (w/v) bovine serum albumin in 100 millimol/L HEPES pH 7.5).
The resulting mixture was incubated 1 h at 22° C. to allow the formation of complex between the phosphorylated biotinylated peptide and the detection reagents. Subsequently the amount of phosphorylated substrate was evaluated by measurement of the resonance energy transfer from the Eu-chelate to the streptavidine-XL. Therefore, the fluorescence emissions at 620 nm and 665 nm after excitation at 350 nm was measured in a TR-FRET reader, e.g. a Pherastar (BMG Labtechnologies, Offenburg, Germany) or a Viewlux (Perkin-Elmer). The ratio of the emissions at 665 nm and at […] was taken as the measure for the amount of phosphorylated substrate. The data were normalised (enzyme reaction without inhibitor=0% inhibition, all other assay components but no enzyme=100% inhibition).

In the case of `FC(F)(F)Oc1ccc(-c2nnc(CNc3nc(N4CCOCC4)nn4c(C(F)(F)F)cnc34)[nH]2)cn1` [Example 19, 2-(morpholin-4-yl)-N-({5-[6-(trifluoromethoxy)pyridin-3-yl]-4H-1,2,4-triazol-3-yl}methyl)-7-(trifluoromethyl)imidazo[2,1-f][1,2,4]triazin-4-amine], the IC50 is 63.2 nM in assay [1] and more than 20000 nM at CDK2/CyclinE.

As for `FC(F)(F)c1ccc(-c2nnc(CNc3nc(N4CCOCC4)nn4c(C(F)(F)F)cnc34)[nH]2)cn1` [Example 20, 2-(morpholin-4-yl)-7-(trifluoromethyl)-N-({5-[6-(trifluoromethyl)pyridin-3-yl]-4H-1,2,4-triazol-3-yl}methyl)imidazo[2,1-f][1,2,4]triazin-4-amine], the IC50 in assay [1] was 83.5 nM; at CDK2/CyclinE, more than 5710 nM.

Regarding `COc1ccc(-c2cnc(CNc3nc(N4CCOCC4)nc4c(C(F)(F)F)cnn34)[nH]2)cn1` [Example 21, N-{[5-(6-methoxypyridin-3-yl)-1H-imidazol-2-yl]methyl}-2-(morpholin-4-yl)-8-(trifluoromethyl)pyrazolo[1,5-a][1,3,5]triazin-4-amine], the IC50 in assay [1] turned out to be 99 nM; on CDK2/CyclinE, 6390 nM.

With `Cc1ccc(-c2nnc(CNc3nc(N4CCOCC4)nc4c(C(F)(F)F)cnn34)[nH]2)cn1` [Example 22, N-{[5-(6-methylpyridin-3-yl)-4H-1,2,4-triazol-3-yl]methyl}-2-(morpholin-4-yl)-8-(trifluoromethyl)pyrazolo[1,5-a][1,3,5]triazin-4-amine], the IC50 in assay [1] was 333 nM; at CDK2/CyclinE, 3120 nM.

`Cc1ccc(-c2nnc(CNc3nc(N4CCOCC4)nn4c(C(F)(F)F)cnc34)[nH]2)cn1` [Example 23, N-{[5-(6-methylpyridin-3-yl)-4H-1,2,4-triazol-3-yl]methyl}-2-(morpholin-4-yl)-7-(trifluoromethyl)imidazo[2,1-f][1,2,4]triazin-4-amine]: the IC50 in assay [1] was determined as 99.3 nM; on CDK2/CyclinE, 2860 nM.
